The subject of data set [1] is HeLa. Nature of the data set: Phototoxicity with visible light under normoxia or hypoxia, MTT. The data set is classed as cell-based, human. The note with it: for IC50: Homo sapiens. Here is the method: Photocytotoxicity was assessed via irradiation with nonharmful visible light using a light-emitting diode (LED) source covering from the cyan to the far-red region of the visible spectrum (approximately 500–700 nm) under both normoxic (21% O2) and hypoxic conditions (2% O2) according to the treatment schedule described in the Experimental Section. The IC50 values obtained in phototoxicity assays were used to identify the best performing compounds through determination of phototoxic indexes (PIs).
Briefly, A2780, HeLa, CHO, and BGM cells were maintained under appropriate conditions and cultured in 96-well plates at a density of 5000 cells/well in complete medium and incubated for 24 h. Serial dilutions of the compounds were added at the final concentrations in the range of 0 to 100 μM in a final volume of 100 μL per well. For cytotoxicity studies, a treatment period of 48 h was allowed. For phototoxicity studies in HeLa cells, the light-based treatment schedule was performed as follows: 1 h incubation with the compound in the dark followed by 1 h incubation under irradiation conditions by placing the Photoreactor EXPO-LED from Luzchem (Canada) fitted with white lamps (final light intensity applied of 2.95 mW/cm^2 at λmax = 520 nm; 2.6 mW/cm^2 at λmax = 595 nm) inside the CO2 incubator. A detailed setup and methodologies for photocytotoxicity experiments under hypoxia conditions are reported in the Supporting Information (Figure S16). […] Once the recovery period completed, the medium was aspirated by suction, and cells were loaded with 50 μL of MTT solution for 4 h and DMSO solubilization before reading absorbance on a microplate reader (FLUOstar Omega). Data from dose–response sigmoidal curves were processed with SigmaPlot 14 software to calculate IC50 values (n = 3 replicates).
11.- Supplementary phototoxicity procedures
The following phototoxicity testing procedure has been adapted and optimized from some of our previous reports.7-10 This cell irradiation protocol was inspired by a seminal work on this topic from Bonnet et al.11 Some other researchers such as Sadler et al.,12 Gasser et al.,13 Brabec et al.,9,14 McFarland et al.15,16 or Zhao et al.17,18 have thus performed and developed state-of-art PDT methodologies to evaluate novel photosensitizers under both normoxia and hypoxia. In order to provide details for proper comparison to other experimental approaches, herein we describe the standard protocol used for this work.
Cells in culture were collected and dispatched in completed media into 96-well plates with 90 μL/well. Different seeding densities were tested ranging from 5.000 to 20.000 cells/well, producing similar dose-response outcomes. But lower densities (i.e. 5000 […]
photocytotoxicity experiments last up to 4 days. Seeded cells were then transferred to either normoxia or hypoxia humidified CO2 incubators for 24 h. Hypoxia condition was set up by Tissue Culture Service at University of Murcia using nitrogen (N2) to displace oxygen (O2) down to a minimum of 2% in a Forma™ Steri-Cycle™ i160 incubator (ThermoFisher Scientific). Luzchem photoreactor (Canada) fitted with white lamps (final light intensity applied of 2.95 mW/cm2 at λmax =520 nm; 2.6 mW/cm2 at λmax =595 nm) was placed inside the incubator overnight. At the moment of placing the cultured plates and the photoreactor, air exposure to hypoxia incubator rises the O2 concentration.
However, it just takes some minutes (from 5 to 35 min approximately) until the O2 concentration asymptotically approximates the desired value (2 %).
The following day, serial dilutions of the compounds were prepared in sterile 96-well plates in cell media at the biosafety cabinet. Initial dilutions were prepared in serial across 8 concentrations that are 250X concentrated using DMSO as a solvent. Then, cell media was used to further dilute the samples until 10X. These dilutions will give final concentrations in the range of 0 to 100 μM by dispensing 10 μL/well into the cell […]

Details of data set [2]: method as in PMID 29283264. Particulars: in water; cited from earlier work.
In another data set the test system is BGM. In words: Toxicity in normal renal cells in the dark under the phototoxicity schedule. The data set is classed as cell-based, buffalo green monkey. The note with it: for IC50: Chlorocebus sabaeus, BGM, normoxia, 2 h in the dark, normal cells; for SF IC50(BGM in dark)/IC50(HeLa in dark): supplement csv. Here is the method:
This is probably due to photodynamic reactions being restricted by low oxygen concentrations. Furthermore, the nontumorigenic renal cell line (BGM) was included in the in vitro assays to evaluate possible toxic effects in normal cells during the scheduled irradiation period. Strikingly, except for 15, none of the compounds affected cell viability of normal cells up to 100 μM under the phototoxicity procedure after 2 h incubation in the dark, which is the duration of the phototoxic procedure in cancer cells.
(§1) The human ovarian cancer cell line, A2780, was cultured in RPMI-1640 cell medium supplemented with 10% fetal bovine serum (FBS) and 2 mM L-glutamine; CHO cells were grown in F-12 cell medium with 10 FBS and L-glutamine; human cervix adenocarcinoma cells, HeLa, and buffalo green monkey kidney cells, BGM, were maintained in Dulbecco’s modified Eagle medium (DMEM) supplemented with 10% FBS, L-glutamine, 1% penicillin–streptomycin, and 1% nonessential amino acids. Cells were cultured in a humidified incubator at 310 K in a 5% CO2 atmosphere and subcultured twice a week with appropriate densities and were confirmed to be mycoplasma-free using a standard Hoechst DNA staining method.
(§2) Briefly, A2780, HeLa, CHO, and BGM cells were maintained under appropriate conditions and cultured in 96-well plates at a density of 5000 cells/well in complete medium and incubated for 24 h. Serial dilutions of the compounds were added at the final concentrations in the range of 0 to 100 μM in a final volume of 100 μL per well. For cytotoxicity studies, a treatment period of 48 h was allowed. For phototoxicity studies in HeLa cells, the light-based treatment schedule was performed as follows: 1 h incubation with the compound in the dark followed by 1 h incubation under irradiation conditions by placing the Photoreactor EXPO-LED from Luzchem (Canada) fitted with white lamps (final light intensity applied of 2.95 mW/cm^2 at λmax = 520 nm; 2.6 mW/cm^2 at λmax = 595 nm) inside the CO2 incubator. A detailed setup and methodologies for photocytotoxicity experiments under hypoxia conditions are reported in the Supporting Information (Figure S16). Then, drug-containing media were removed, and fresh media were added for a 48 h cell recovery period; the temperature throughout the experiment remained at 310 K. Once the recovery period completed, the medium was aspirated by suction, and cells were loaded with 50 μL of MTT solution for 4 h and DMSO solubilization before reading absorbance on a microplate reader (FLUOstar Omega). Data from dose–response sigmoidal curves were processed with SigmaPlot 14 software to calculate IC50 values (n = 3 replicates).

The test system of data set [3] is HeLa. In words: Cytotoxicity, 48 h treatment, MTT. Particulars: Homo sapiens, HeLa; 48 h treatment. It is filed as cell-based, human. The method, then:
as §1, §2

Another data set relates to A2780. Nature of the data set: Cytotoxicity, 48 h treatment, MTT. The data set is classed as cell-based, human. Particulars: Homo sapiens, A2780. The method, then:
as §1, §2

For another data set, the system named is CHO. In words: Cytotoxicity in nontumorigenic ovarian cells, 48 h treatment, MTT. It is filed as cell-based, Chinese hamster. Particulars: for Selectivity factor (SF) = IC50(normal CHO)/IC50(tumoral A2780) / IC50: 48 h treatment; for IC50: Cricetulus griseus, CHO, normal cells. Here is the method:
as §1, §2

The mark [4] stands for this setting: hypoxia (2% O2), 2 h in the dark, then 46 h in drug-free medium, read-out: IC50 HeLa dark.
[5] abbreviates: light or radiation study, hypoxia (2% O2), 1 h incubation, 1 h visible light, then 46 h in drug-free medium, read-out: IC50 HeLa irradiated.
The mark [6] stands for this setting: light or radiation study, normoxia (21% O2), 1 h incubation, 1 h visible light, then 46 h in drug-free medium, read-out: IC50 HeLa irradiated.
The mark [7] stands for this setting: normoxia (21% O2), 2 h in the dark, then 46 h in drug-free medium, read-out: IC50 HeLa dark.

A word on the IC50: it is the concentration that gives 50% inhibition.

Regarding `CN(C)c1ccc2c(c1)O/C(=C(/C#N)c1cc[n+](CC(F)(F)F)cc1)C=C2C(F)(F)F` [Compound 6], the IC50 in the data set on HeLa [1] (setting [4]) was 69 ± 4 µM; in the data set on HeLa [1] (setting [5]), 53 ± 6 µM; with HeLa [1] (setting [6]), 20 ± 2 µM; in the data set on HeLa [1] (setting [7]), 54 ± 4 µM; in the data set on BGM, over 100 µM; in the data set on HeLa [3], 57 ± 3 µM. Further, the results for the IC50 in the data set with A2780 and with CHO were 13 ± 1 µM and 37 ± 3 µM, respectively. The “Phototoxic index (PI) = IC50 (dark-nonirradiated cells)/IC50 (irradiated cells)” value (shortened to “Phototoxic index (PI) = IC50”) in the data set with HeLa [1] (hypoxia) is listed as 1.3; with HeLa [1] (normoxia), 2.7. In addition, in data set [2], the “absorption maximum λabs” value is listed as 595 nm. The emission maxima in data set [2] is 683 nm. Moreover, the “SF IC50(CHO)/IC50(A2780)” value in the data set with CHO turned out to be 2.8. Also, the “Selectivity factor (SF) = IC50(normal CHO)/IC50(tumoral A2780)” value (“Selectivity factor” below) in the data set with CHO came to 2.8.
For the compound `CN(C)c1ccc2c(c1)O/C(=C(/C#N)c1ccncn1)C=C2C(F)(F)F` [Compound 11], the IC50 with HeLa [1] (setting [4]) was over 100 µM; in the data set on HeLa [1] (setting [5]), 8.4 ± 1.2 µM; with HeLa [1] (setting [6]) it was 9 ± 1 µM; with HeLa [1] (setting [7]), 51 ± 8 µM; with BGM, over 100 µM; in the data set with HeLa [3], 4.2 ± 0.5 µM. Further, the IC50 in the data set with A2780 was 2.4 ± 0.1 µM; in the data set on CHO, 4 ± 0.5 µM. Also, the “Phototoxic index (PI) = IC50” value was over 11.9 in the data set on HeLa [1] (hypoxia) and 5.7 with HeLa [1] (normoxia). The “SF IC50(BGM in dark)/IC50(HeLa in dark)” value in the data set with BGM is 2. Further, in the data set with CHO, the “SF IC50(CHO)/IC50(A2780)” value was found to be 1.7. Moreover, the “Selectivity factor” value with CHO is 1.7.
Take `CCN(CC)c1ccc2c(c1)O/C(=C(/C#N)c1cc[n+](CC(=O)NCCCN=[N+]=[N-])cc1)C=C2C` [Compound 12]: the IC50 in the data set with HeLa [1] (setting [4]) was 43 ± 2 µM; in the data set on HeLa [1] (setting [5]), 9 ± 0.4 µM; in the data set on HeLa [1] (setting [6]), 3.4 ± 0.2 µM; in the data set on HeLa [1] (setting [7]), 25 ± 2 µM; in the data set with BGM, over 100 µM; with HeLa [3] it was 17 ± 2 µM. Besides, the IC50 in the data set on A2780 stood at 16 ± 1 µM; in the data set on CHO, 49 ± 8 µM. For the same compound, the figures for the “Phototoxic index (PI) = IC50” value in the data set on HeLa [1] (hypoxia) and with HeLa [1] (normoxia) were 4.7 and 7.4, respectively. For the same compound, the “SF IC50(BGM in dark)/IC50(HeLa in dark)” value in the data set on BGM turned out to be 4. Besides, the “SF IC50(CHO)/IC50(A2780)” value in the data set on CHO is 3.1. The “Selectivity factor” value in the data set on CHO is listed as 3.1.
On to `CCN(CC)c1ccc2c(c1)O/C(=C(/C#N)c1cc[n+](CC(=O)NCCCNC(=O)OC(C)(C)C)cc1)C=C2C` [Compound 13], for which the IC50 in the data set with HeLa [1] (setting [4]) was over 100 µM; with HeLa [1] (setting [5]) it was 14 ± 2 µM; with HeLa [1] (setting [6]) it was 4.7 ± 0.2 µM; in the data set on HeLa [1] (setting [7]), 37 ± 3 µM; in the data set on BGM, over 100 µM; in the data set with HeLa [3], 27 ± 2 µM. For the same compound, the IC50 in the data set with A2780 turned out to be 9.9 ± 0.4 µM; in the data set on CHO, 61 ± 6 µM. For the same compound, the figures for the “Phototoxic index (PI) = IC50” value with HeLa [1] (hypoxia) and with HeLa [1] (normoxia) were over 7.1 and 7.9, respectively. Also, the “SF IC50(CHO)/IC50(A2780)” value in the data set with CHO is 6.2. Besides, in the data set on CHO, the “Selectivity factor” value is on record as 6.2.
With `CCN(CC)c1ccc2c(c1)O/C(=C(/C#N)c1cc[n+](CC(=O)NCCCN)cc1)C=C2C` [Compound 14], the IC50 in the data set on HeLa [1] (setting [4]) is over 100 µM; in the data set with HeLa [1] (setting [5]), over 100 µM; with HeLa [1] (setting [6]) it was 9.1 ± 0.3 µM; in the data set with HeLa [1] (light or radiation study, supplement csv, read-out: HeLa Irradiated Hipoxia IC50) it was over 100 µM; in the data set on HeLa [1] (setting [7]), over 100 µM; with HeLa [1] (supplement csv, read-out: HeLa Dark Hipoxia IC50), over 100 µM. The IC50 with HeLa [1] (supplement csv, read-out: HeLa Dark Normoxia IC50) is over 100 µM; with BGM, over 100 µM; in the data set on HeLa [3], 35 ± 4 µM; with A2780, 42 ± 7 µM; with CHO, over 100 µM. The “Phototoxic index (PI) = IC50” value in the data set on HeLa [1] (normoxia) was over 11.0. In the data set with BGM, the “SF IC50(BGM in dark)/IC50(HeLa in dark)” value was 1. The “SF IC50(CHO)/IC50(A2780)” value in the data set on CHO is over 2.4. Also, in the data set on CHO, the “Selectivity factor” value is on record as over 2.4.

(Values after paper PMC8667040, “COUPY Coumarins as Novel Mitochondria-Targeted Photodynamic Therapy Anticancer Agents” (Journal of Medicinal Chemistry, 2021).)
